Experimental data reported in patent publication US20250297310A1, “HEMATOPOIETIC LOSS OF Y CHROMOSOME LEADS TO CARDIAC FIBROSIS AND DYSFUNCTION AND IS ASSOCIATED WITH DEATH DUE TO HEART FAILURE” (University of Virginia Patent Foundation, priority 2022, published 2025).

Key:
[1] = Effect of senolytic ABT-263 on lifespan and kidney function in aging hematopoietic Uty-KO mice; type: in vivo
From the text: FIGS. 28A-28C. The effect of the senolytic ABT-263 on lifespan and kidney function in aging hematopoietic Uty-KO mice. FIG. 28A. Exemplary model of ABT-263 mice. FIGS. 28B and 28C.
FIGS. 28A-28C show the effect of the senolytic ABT-263 on lifespan and kidney function in aging hematopoietic Uty-KO mice, using an exemplary model of ABT-263 mice.

[2] = tested on: centromere of the Y chromosome; assay: Y chromosome ablation efficiency by FISH analysis of tRFP-positive blood cells; type: cell-based; settings: tRFP-positive blood cells from reconstituted mice
From the text: Plasmids. Single guide RNAs (sgRNA) targeting the centromere of the Y chromosome (gRNA1, gRNA2) were from a previous report (Adikusuma et al., 2017), and the control gRNA is non-targeting. sgRNA sequences are listed in Table 4. Single stranded sgRNA sequences were annealed and cloned into pLKO.sgRNA.EFS.tRFP following restriction digestion with Esp3I, and successful cloning was confirmed by Sanger sequencing with U6 primer (Table 4). Plasmids were from Addgene (pLKO5.0.sgRNA.EFS.tRFP, plasmid #57823; psPAX2; plasmid #12260; and pMD2.G, plasmid #12259).
Ex vivo genome editing of HSPC. sgRNAs were delivered lentivirally to bone marrow lineage-negative cells obtained from ROSA26Cas9 knock-in mice as described previously (Sano et al., 2019).
Fluorescence in situ hybridization (FISH). […] 200 interphase nuclei were analyzed by two technologists using an Olympus fluorescence microscope (model BX-41).
We constructed a mouse model of hematopoietic mLOY by employing CRISPR/Cas9 gene editing to target repeat DNA sequences that are specific to the centromere of the Y chromosome. […] Two LOY-gRNAs (LOY-gRNA1 and 2) targeting different repeat sequences within the centromere were evaluated for the efficiency of Y chromosome ablation by fluorescent in situ hybridization (FISH) analysis of X and Y chromosome in tRFP-positive blood cells collected from mice reconstituted with bone marrow cells. […]

With `CC1(C)CCC(c2ccc(Cl)cc2)=C(CN2CCN(c3ccc(C(=O)NS(=O)(=O)c4ccc(N[C@H](CCN5CCOCC5)CSc5ccccc5)c(S(=O)(=O)C(F)(F)F)c4)cc3)CC2)C1` [ABT-263] the “progression of renal dysfunction” value [1] was “suppressed the progression of renal dysfunction” and the survival [1] was “promoted survival”.

With “LOY-gRNA1: guide RNA targeting a repeat sequence in the centromere of the Y chromosome, SEQ ID NOs: 1-2 (guide 1 CACCGGAGUUAAUAUAAAAAACA; guide 2 AAACUGUUUUUUAUAUUAACUCC; listed as RNA, chemistry not fully specified)” the “Y chromosome ablation efficiency” value [2] was “approximately 95%”.
